Data set [1] in a line: DPPH radical scavenging ability. It counts as biochemical. As to conditions: for BHT-Relative Antioxidant Ability (%) DPPH Method: sample concentration 500 μM, 50 minutes at room temperature, absorbance at 517 nm, relative to 500 μM BHT; for Radical scavenging ability (DPPH) compared in words with BHT or Pro-His-His: 500 μM. The text has this: (§1) The antioxidant action of a peptide may be determined by a known method such as DPPH method or β-carotene bleaching method (see, e.g., Chen, H M., Muramoto, K., Yamauchi, F., and Nokihara, K., J. Agric. Food Chem., 44, 2619-2623, 1996. Antioxidant Activity of Designed Peptides Based on the Antioxidative Peptide Isolated from Digests of a Soybean Protein). DPPH method is to measure radical scavenging ability using 1,1-diphenyl-2-picrylhydrazyl (DPPH). […] In addition, the level of an antioxidant action can be evaluated by the degree of decrease of absorbance. β-carotene bleaching method is to calculate antioxidant ability of an analyte by autoxidizing a mixture of β-carotene, linoleic acid and the analyte and measuring suppression of β-carotene oxidization. […] In addition, the level of an antioxidant action can be evaluated by the degree of decrease of absorbance. Such known evaluation methods as described above reflect a part of antioxidant mechanisms which act in a living body in parallel.
Next, DPPH was dissolved in ethanol to prepare 10 mL of 0.1 mM DPPH-ethanol solution, and 0.15 mL of this DPPH-ethanol solution and 0.15 mL of the above-prepared undiluted solution were mixed and stirred (the sample concentration: 500 μM). The reaction was allowed to proceed for 50 minutes at room temperature, and the absorbance at 517 nm wavelength was measured with a UV-VIS spectrophotometer (JASCO V-570). For blanks, a blank solution was prepared using the same volume of ethanol instead of DPPH, and the absorbance of the blank solution was measured via the same reaction condition. For controls, a control solution was prepared using ethanol instead of sample solutions, and the absorbance of the control solution was measured via the same reaction condition.
The DPPH radical scavenging ability was calculated according to the following formula.
Radical Scavenging Ability AntOx(%)=(Acon−Asam)/Acon×100
Acon=The absorbance of the control after being left to stand for 50 minutes. Asam=The absorbance of the sample after being left to stand for 50 minutes.
(§2) The BHT-relative antioxidant ability was calculated according to the following formula.
BHT-Relative Antioxidant Ability(%)=[AntOx(%)]/[500 μM BHT(%)]×100

Data set [2] can be described thus: β-carotene bleaching method (carotene-linoleic acid autoxidation). It counts as biochemical. The conditions noted are these: for BHT-Relative Antioxidant Ability (%) β-Carotene Method: sample concentration 5 μM, 50 minutes at 50° C., absorbance at 492 nm, relative to 5 μM BHT; for Antioxidant ability (β-carotene method) compared in words with BHT or Pro-His-His: 5 μM.
Excerpt: as §1
β-carotene was dissolved in chloroform to prepare 1 mg/mL solution. Linoleic acid was dissolved in chloroform to prepare 0.1 g/mL solution. Tween 40 was dissolved in chloroform to prepare 0.2 g/mL solution. Into 100 mL recovery flasks, 0.15 mL of β-carotene solution in chloroform, 0.1 mL of linoleic acid solution in chloroform, and 0.3 mL of Tween 40 solution in chloroform were aliquoted, and the mixed solution was evaporated to dryness with an evaporator until the smell of chloroform was completely disappeared. The dried mixture was dissolved in 30 mL of pure water, and 2.7 mL of 0.2 M phosphate buffer (pH 6.8) was further added thereto, followed by gentle stirring to prepare carotene-linoleic acid solution. Next, the peptides obtained in Example 1 were dissolved in ethanol to prepare 1 mL of 0.05 mM peptide solutions, respectively.
Thereafter, 0.45 mL of carotene-linoleic acid solution and 0.05 mL of undiluted sample solution were mixed and stirred (sample concentration: 5 μM), and the reaction was allowed to proceed for 50 minutes at 50° C. Five minutes and 50 minutes after the start of the reaction, the absorbance at OD 492 nm was measured with a UV-VIS spectrophotometer. For blanks, a blank solution was prepared using the same volume of distilled water instead of carotene-linoleic acid solution, and the absorbance of the blank solution was measured via the same reaction condition. For controls, a control solution was prepared using ethanol instead of sample solutions, and the absorbance of the control solution was measured via the same reaction condition.
The antioxidant ability was calculated according to the following formula.
Antioxidant ability(%)=[1-−A5S−A50S)/(A5C−A50C)]×100
A5C=The absorbance of the control after 5-minute reaction. A5S=The absorbance of the sample after 5-minute reaction. A50C=The absorbance of the control after 50-minute reaction. A50S=The absorbance of the sample after 50-minute reaction.
as §2
BHT-Relative Antioxidant Ability(%)=[AntOx(%)]/[5 μM BHT(%)]×100

The subject of a further data set is ddY mice. Put plainly: Acute dermal toxicity study of mimosine cream. It counts as in vivo. The conditions noted are these: cream applied to shaved trunk twice a day for three days; skins surveyed at day 5. On the procedure: Vegetable emulsified wax (emulsifying wax, Orangeflower Inc., ingredients: stearyl alcohol, polysorbate 60) and oil (edible olive oil, Ajinomoto Co., Inc.) were completely melted in hot water (50° C.). Warm water (ultrapure water) was added thereto, and the mixture was mixed. An aqueous solution of mimosine or mimosine-introduced peptide was added thereto, and the mixture was completely mixed up. The obtained mixture was stored at 4° C. until use in the animal experiment.
The left and right sides of the trunk of ddY mice (9-week-old, male, 6 mice in each group) were shaved with clippers under anesthesia with ether. […] Any special changes were not observed. […] Therefore, it is thought that mimosine and mimosine-introduced peptide can be utilized in the cosmetic field.

For the next data set, the target named is Mushroom tyrosinase (Agaricus bisporus, UniProt C7FF04). As to the kind of experiment: Tyrosinase inhibitory activity with L-DOPA as substrate. It counts as biochemical. The conditions noted are these: for IC50: pH 6.8, room temperature, absorbance at 475 nm for 60 seconds, read-out: IC50 for tyrosinase inhibition. On the procedure: Tyrosinase inhibitory activity of a peptide can be evaluated by a known method using tyrosinase and its substrate such as L-dihydroxyphenylalanine (L-DOPA) or L-tyrosine. Specific examples of the evaluation method are described in the Examples below. For example, a peptide whose tyrosinase inhibitory activity should be measured, tyrosinase, and its substrate are dissolved in phosphate buffer, respectively (the peptide and tyrosinase may be dissolved in the same solution). Immediately after mixing the three components, change in absorbance at 475 nm is measured with a spectrophotometer. Since melanin has an absorption maximum at 475 nm, absorbance at 475 nm increases if melanin is synthesized from L-DOPA by tyrosinase. […] Therefore, the tyrosinase inhibitory activity of a peptide can be evaluated based on the change in absorbance.
Mushroom tyrosinase (SIGMA-Aldrich, Missouri, USA)
L-DOPA (SIGMA-Aldrich, Missouri, USA)
50 mM Sodium phosphate buffer (pH 6.8)
Using 50 mM sodium phosphate buffer (pH 6.8), 5 mM L-DOPA solution, mushroom tyrosinase solution (2 units/μL) and 1 mM inhibitor stock solution (×10) were prepared.
Reaction Solution A (25 μL of 5 mM DOPA solution; 75 μL of 50 mM sodium phosphate buffer (pH 6.8)) and Reaction Solution B (25 μL of inhibitor stock solution; 12.5 μL of tyrosinase solution; 112.5 μL of 50 mM sodium phosphate buffer (pH 6.8)) were prepared in two Eppendorf tubes, respectively. Reaction Solutions A and B were mixed just before the measurement, and the absorbance at 475 nm wavelength was measured with a spectrophotometer (V-570, Jasco, Tokyo, Japan). The measurement was carried out for 60 seconds at room temperature, and the absorbance was recorded every 1 second. This operation was repeated 3 times for each sample concentration.
The tyrosinase activity ratio at each inhibitor concentration was calculated based on the control (tyrosinase alone) value, and IC50s for tyrosinase inhibition of the samples were calculated using Ngraph. The fitting formula below was used in the calculation.
y=a−(a−b)/(1+(x/c)̂d (a=Minimum value of y; b=Maximum value of y; c=[…]; d=Variable)

Chain of Mushroom tyrosinase (G1K3P4 entry or part of it): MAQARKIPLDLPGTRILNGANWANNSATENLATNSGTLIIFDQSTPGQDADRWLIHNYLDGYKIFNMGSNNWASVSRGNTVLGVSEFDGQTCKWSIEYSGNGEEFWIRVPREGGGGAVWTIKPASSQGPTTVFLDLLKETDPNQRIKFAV
Chain of Mushroom tyrosinase (C7FF04 1-392): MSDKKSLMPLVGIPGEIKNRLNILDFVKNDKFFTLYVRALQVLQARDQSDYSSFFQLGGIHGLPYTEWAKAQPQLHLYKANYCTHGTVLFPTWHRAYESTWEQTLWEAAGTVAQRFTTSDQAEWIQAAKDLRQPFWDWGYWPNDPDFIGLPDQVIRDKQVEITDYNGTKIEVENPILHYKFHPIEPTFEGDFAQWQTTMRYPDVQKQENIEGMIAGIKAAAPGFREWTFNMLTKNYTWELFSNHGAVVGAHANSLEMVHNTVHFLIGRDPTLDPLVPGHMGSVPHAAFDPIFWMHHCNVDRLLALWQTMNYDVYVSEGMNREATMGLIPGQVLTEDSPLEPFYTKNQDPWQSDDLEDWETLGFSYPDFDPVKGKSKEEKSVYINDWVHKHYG

Consider `Cc1cc(C(C)(C)C)c(O)c(C(C)(C)C)c1` [BHT, butylated hydroxytoluene, reference compound], for which the “BHT-Relative Antioxidant Ability (%) DPPH Method” value in data set [1] was 100.00%. The “BHT-Relative Antioxidant Ability (%) β-Carotene Method” value in data set [2] is reported as 100.00%.

Take `NC(Cn1ccc(=O)c(O)c1)C(=O)O` (stereo not drawn) [Mimosine]: the “Acute dermal toxicity (skin condition)” value in the data set on ddY mice was “neither mimosine nor a mimosine-introduced peptide has an acute dermal toxicity”.

For the molecule “Arg-His-Trp [Sample 5X, reference compound]”, the “BHT-Relative Antioxidant Ability (%) DPPH Method” value in data set [1] worked out at 11.26%. Moreover, in data set [2], the “BHT-Relative Antioxidant Ability (%) β-Carotene Method” value turned out to be 41.37%.

On to Leu-His-Mim [Sample 8], for which the “BHT-Relative Antioxidant Ability (%) DPPH Method” value in data set [1] worked out at 26.45%. Besides, in data set [2], the “BHT-Relative Antioxidant Ability (%) β-Carotene Method” value worked out at 77.79%.

Consider “Leu-His-Trp [Sample 8X, reference compound]”, for which the “BHT-Relative Antioxidant Ability (%) DPPH Method” value in data set [1] amounted to 41.92%. Further, the “BHT-Relative Antioxidant Ability (%) β-Carotene Method” value in data set [2] came to 46.79%.

For the molecule Leu-Trp-Mim [Sample 9], the “BHT-Relative Antioxidant Ability (%) DPPH Method” value in data set [1] is on record as 41.02%. Also, in data set [2], the “BHT-Relative Antioxidant Ability (%) β-Carotene Method” value worked out at 77.32%.

As to “Leu-Trp-Trp [Sample 6X, reference compound]”, the “BHT-Relative Antioxidant Ability (%) DPPH Method” value in data set [1] came out at 73.27%. The “BHT-Relative Antioxidant Ability (%) β-Carotene Method” value in data set [2] was 28.28%.

For the molecule Mim-Arg-Tyr [Sample 2], the “BHT-Relative Antioxidant Ability (%) DPPH Method” value in data set [1] is reported as 77.89%. For the same molecule, the “BHT-Relative Antioxidant Ability (%) β-Carotene Method” value in data set [2] came out at 66.77%.

Mim-His-Trp [Sample 5]: in data set [1], the “Radical scavenging ability (DPPH) compared in words with BHT or Pro-His-His” value is “at the same level as or higher than BHT” and the “BHT-Relative Antioxidant Ability (%) DPPH Method” value is on record as 99.06%. Moreover, in data set [2], the “Antioxidant ability (β-carotene method) compared in words with BHT or Pro-His-His” value was “at the same level as BHT” and the “BHT-Relative Antioxidant Ability (%) β-Carotene Method” value stood at 92.66%. For the same molecule, at Mushroom tyrosinase, the “Tyrosinase inhibitory activity compared in words with mimosine or kojic acid” value was “higher than kojic acid” and the IC50 amounted to 3.02 µM.

Mim-His-Tyr [Sample 3]: the “BHT-Relative Antioxidant Ability (%) DPPH Method” value in data set [1] was 84.88%. Further, in data set [2], the “Antioxidant ability (β-carotene method) compared in words with BHT or Pro-His-His” value was “at the same level as BHT” and the “BHT-Relative Antioxidant Ability (%) β-Carotene Method” value was found to be 95.80%. Further, the IC50 on Mushroom tyrosinase came to 8.84 µM.

Regarding Mim-Pro-His-His [Sample 1], in data set [1], the “Radical scavenging ability (DPPH) compared in words with BHT or Pro-His-His” value was “at the same level as or higher than BHT” and the “BHT-Relative Antioxidant Ability (%) DPPH Method” value amounted to 111.67%. In data set [2], the “Antioxidant ability (β-carotene method) compared in words with BHT or Pro-His-His” value is “at the same level as BHT” and the “BHT-Relative Antioxidant Ability (%) β-Carotene Method” value amounted to 93.86%. In addition, the IC50 at Mushroom tyrosinase was determined as 16.4 µM.

Turning to Mim-Trp-Trp [Sample 6], in data set [1], the “Radical scavenging ability (DPPH) compared in words with BHT or Pro-His-His” value is recorded as “at the same level as or higher than BHT” and the “BHT-Relative Antioxidant Ability (%) DPPH Method” value was found to be 117.34%. Further, the “BHT-Relative Antioxidant Ability (%) β-Carotene Method” value in data set [2] is reported as 72.56%. Also, on Mushroom tyrosinase, the IC50 came out at 28.2 µM.

Regarding MimLys-Tyr [Sample 4], the “BHT-Relative Antioxidant Ability (%) DPPH Method” value in data set [1] is 75.33%. For the same molecule, the “BHT-Relative Antioxidant Ability (%) β-Carotene Method” value in data set [2] is 81.96%.

As to “Pro-His-His [Sample 1X, reference compound]”, in data set [1], the “BHT-Relative Antioxidant Ability (%) DPPH Method” value is 23.01%. Further, the “BHT-Relative Antioxidant Ability (%) β-Carotene Method” value in data set [2] is 63.00%.

With Pro-His-Mim [Sample 10], the “BHT-Relative Antioxidant Ability (%) DPPH Method” value in data set [1] was determined as 26.45%. In addition, in data set [2], the “BHT-Relative Antioxidant Ability (%) β-Carotene Method” value is given as 79.55%.

With “Pro-His-Tyr [Sample 3X, reference compound]”, in data set [1], the “BHT-Relative Antioxidant Ability (%) DPPH Method” value is 9.63%. Further, in data set [2], the “BHT-Relative Antioxidant Ability (%) β-Carotene Method” value turned out to be 33.56%.

For Pro-Mim-His [Sample 7], the “BHT-Relative Antioxidant Ability (%) DPPH Method” value in data set [1] is 37.04%. The “BHT-Relative Antioxidant Ability (%) β-Carotene Method” value in data set [2] turned out to be 73.07%.

Turning to “Tyr-Arg-Tyr [Sample 2X, reference compound]”, in data set [1], the “BHT-Relative Antioxidant Ability (%) DPPH Method” value was 11.31%. In data set [2], the “BHT-Relative Antioxidant Ability (%) β-Carotene Method” value came out at 7.78%.

As for “Tyr-Lys-Tyr [Sample 4X, reference compound]”, the “BHT-Relative Antioxidant Ability (%) DPPH Method” value in data set [1] turned out to be 9.55%. In addition, the “BHT-Relative Antioxidant Ability (%) β-Carotene Method” value in data set [2] is 18.88%.

(Values after patent US20110319347A1, “ANTIOXIDANT AGENT” (priority 2009, published 2011).)
